Experiment [1] deals with T1, IDO (IFNγ-treated Hela cells) (Homo sapiens, UniProt P14902).
T1 construct: endogenous in cells; host or cells: Hela cells treated with IFNγ (10 ng/ml)
The experiment is described as follows: IDO Kynurenine Assay with Hela Cells. In kind it is cell-based. The conditions noted are these: IFNγ 10 ng/ml, 20 hours incubation, kynurenine absorbance at 490 nm, read-out: Hela Cells LLE_IDO_ABS_DR (IC50). On the procedure: IDO Kynurenine Assay with Hela Cells
Hela cells were seeded at 30,000 cells per well in 40 ul RPMI/phenol red free media contains 10% FBS in a 384-well black wall clear bottom tissue culture plate (Matrix Technologies LLC). 270 nl of certain concentration of compound was then added to each well using ECHO liquid handling systems. 40 ul of IFNγ (R&D, 285-IF-100) at final concentration of 10 ng/ml was then added to column 2-24 with media to column 1 as control. The cells were incubated for 20 hours in 37° C. incubator with 5% CO2.
The compound treatments were stopped by adding trichloroacetic acid (Sigma-Aldrich) to a final concentration at 0.2%. The cell plate was further incubated at 50° C. for 30 minute. The equal volume supernatant (20 uL) and 0.2% (w/v) Ehrlich reagent (4-dimethylaminobenzaldehyde, Sigma-Aldrich) in glacial acetic acid were mixed in a new clear bottom 384-well plate. This plate was then incubated at room temperature for 30 minute. The absorbance at 490 nm was measured on Envision plate reader.
Compound IC50 values were calculated using the counts of no IFNγ control as one hundred percent inhibition, and counts of no compound but DMSO treatment as zero percent inhibition.

In experiment [2] the target is T2, Human IDO1 (Homo sapiens, UniProt P14902).
T2 construct: expressed in transfected cells; host or cells: HEK293
Kind of experiment: IDO Kynurenine Assay with Human IDO1/HEK293 Cells. As to conditions: 20 hours incubation, kynurenine absorbance at 490 nm, read-out: HEK human IDO-1 (IC50). In kind it is cell-based. The protocol:
IDO Kynurenine Assay with Human IDO1/HEK293 Cells
Human IDO1/HEK293 cells were seeded at 10,000 cells per 50 uL per well with RPMI/phenol red free media contains 10% FBS in a 384-well black wall clear bottom tissue culture plate (Matrix Technologies LLC) 125 nL of certain concentration of compound was then added to each well using ECHO liquid handling systems. The cells were incubated for 20 hours in 37° C. incubator with 5% CO2.
The compound treatments were stopped by adding Trichloroacetic Acid (Sigma-Aldrich) to a final concentration at 0.2%. The cell plate was further incubated at 50° C. for 30 minute. The equal volume supernatant (20 uL) and 0.2% (w/v) Ehrlich reagent (4-dimethylaminobenzaldehyde, Sigma-Aldrich) in glacial acetic acid were mixed in a new clear bottom 384-well plate. This plate was then incubated at room temperature for 30 minute. The absorbance at 490 nm was measured on Envision plate reader.
Compound IC50 values were calculated using the counts of 500 nM of a reference standard treatment as one hundred percent inhibition, and counts of no compound but DMSO treatment as zero percent inhibition.

From US9895330B2, “IDO inhibitors” (BRISTOL-MYERS SQUIBB COMPANY, priority 2013, dated 2018) come the findings set out here.

What is called pIC50 is −log10 of the IC50, conventionally taken in molar units.

pIC50: −log10 of the molar value.

T1 sequence (P14902 whole entry): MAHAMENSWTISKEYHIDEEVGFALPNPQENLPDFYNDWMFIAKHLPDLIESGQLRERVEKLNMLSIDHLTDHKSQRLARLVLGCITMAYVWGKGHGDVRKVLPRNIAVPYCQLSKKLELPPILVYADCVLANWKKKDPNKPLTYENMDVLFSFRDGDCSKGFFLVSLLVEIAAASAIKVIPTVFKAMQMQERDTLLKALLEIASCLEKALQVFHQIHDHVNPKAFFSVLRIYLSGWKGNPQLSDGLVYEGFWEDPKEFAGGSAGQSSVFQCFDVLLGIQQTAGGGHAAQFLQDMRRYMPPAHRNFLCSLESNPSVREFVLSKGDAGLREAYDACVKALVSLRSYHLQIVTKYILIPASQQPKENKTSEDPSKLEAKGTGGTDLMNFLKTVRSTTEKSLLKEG
T2 sequence (P14902 whole entry): as above

Turning to `Cc1ccc(CC(=O)Nc2cc(-c3ccccc3-c3nnn[nH]3)ccc2N2CC3CC2CN3Cc2ccccc2)cc1` (centres unmarked) [Example 80], the pIC50 in experiment [1] was 8.07; in experiment [2], 8.29.
